# ChEMBL document CHEMBL1143517, “Synthesis and in vitro leishmanicidal activity of 2-(5-nitro-2-furyl) and 2-(5-nitro-2-thienyl)-5-substituted-1,3,4-thiadiazoles” (Bioorg Med Chem Lett, 2005)
# System: Leishmania major
# Experiment: In vitro inhibition of growth of Leishmania major promastigotes with the compound dissolved in DMSO using 3-H thymidine incorporation
# Format: functional, organism-based
row,Structure (SMILES),IC50 [µM]
1,O=[N+]([O-])c1ccc(-c2nnc(N3CCCCC3)s2)s1,> 150
2,CC(=O)N1CCN(c2nnc(-c3ccc([N+](=O)[O-])o3)s2)CC1,1.1
3,CC(=O)N1CCN(c2nnc(-c3ccc([N+](=O)[O-])s3)s2)CC1,48.5
4,O=[N+]([O-])c1ccc(-c2nnc(N3CCNCC3)s2)s1,> 150
5,O=C(c1ccccc1)N1CCN(c2nnc(-c3ccc([N+](=O)[O-])o3)s2)CC1,0.5
6,O=C(c1ccccc1)N1CCN(c2nnc(-c3ccc([N+](=O)[O-])s3)s2)CC1,11.1
7,O=[N+]([O-])c1ccc(-c2nnc(N3CCOCC3)s2)s1,10.6
8,O=[N+]([O-])c1ccc(-c2nnc(N3CCNCC3)s2)o1,8.9
9,O=[N+]([O-])c1ccc(-c2nnc(N3CCOCC3)s2)o1,5.2
10,CN1CCN(c2nnc(-c3ccc([N+](=O)[O-])s3)s2)CC1,103
11,CN1CCN(c2nnc(-c3ccc([N+](=O)[O-])o3)s2)CC1,7.3
12,O=[N+]([O-])c1ccc(-c2nnc(N3CCCCC3)s2)o1,3.2
13,O=[N+]([O-])c1ccc(-c2nnc(N3CCN(c4ccccc4)CC3)s2)s1,106
14,O=[N+]([O-])c1ccc(-c2nnc(N3CCN(c4ccccc4)CC3)s2)o1,0.1
